Numbers after ± are expanded uncertainties.

For data set [1] the following is noted: for mass density: 101.33 kPa, Liquid, Vibrating tube method.
Data set [2] can be described thus: Molar enthalpy of transition or fusion. The settings on record: Crystal; DSC.
A short description of data set [3]: activity coefficient (dimensionless); of the first substance listed, at infinite dilution; xn = mol fraction of the nth substance listed. The conditions noted are these: 101 kPa, Liquid, Chromatography, x1 = 0.

With `CCCC[N+]1(C)CCCC1.N#C[B-](C#N)(C#N)C#N` [1-butyl-1-methylpyrrolidinium tetracyanoborate], the mass density in data set [1] (318.15 K) was found to be 962.29 ± 1 kg/m3; in data set [1] (328.15 K) it was 955.61 ± 1 kg/m3; in data set [1] (338.15 K), 949 ± 1 kg/m3; in data set [1] (348.15 K), 942.32 ± 1 kg/m3; in data set [1] (358.15 K), 935.59 ± 1 kg/m3; in data set [1] (368.15 K) it was 928.86 ± 1 kg/m3. In data set [1] (Crystal, DTA), the Normal melting temperature stood at 17.30 ± 0.39 °C. Besides, the “Molar enthalpy of transition or fusion” value in data set [2] was 8.51 ± 0.184 kcal/mol.
Regarding `CCc1ccccc1` [ethylbenzene] + CCCC[N+]1(C)CCCC1.N#C[B-](C#N)(C#N)C#N, the activity coefficient in data set [3] (318.15 K) was 1.56 ± 0.1; in data set [3] (328.15 K), 1.58 ± 0.1; in data set [3] (338.15 K), 1.6 ± 0.11; in data set [3] (348.15 K), 1.64 ± 0.11; in data set [3] (358.15 K) it was 1.66 ± 0.11; in data set [3] (368.15 K) it was 1.69 ± 0.11.
Consider `CCCCCCC` [heptane] + CCCC[N+]1(C)CCCC1.N#C[B-](C#N)(C#N)C#N, for which the activity coefficient in data set [3] (318.15 K) is 23 ± 1.6; in data set [3] (328.15 K), 21.5 ± 1.5; in data set [3] (338.15 K), 19.8 ± 1.4; in data set [3] (348.15 K) it was 19 ± 1.3; in data set [3] (358.15 K) it was 17.5 ± 1.2; in data set [3] (368.15 K), 16.6 ± 1.1.
Regarding `C=CCCCC` [hex-1-ene] + CCCC[N+]1(C)CCCC1.N#C[B-](C#N)(C#N)C#N, the activity coefficient in data set [3] (318.15 K) stood at 7.68 ± 0.52; in data set [3] (328.15 K), 7.31 ± 0.5; in data set [3] (338.15 K), 7.16 ± 0.49; in data set [3] (348.15 K), 7.03 ± 0.48; in data set [3] (358.15 K), 6.57 ± 0.45; in data set [3] (368.15 K) it was 6.57 ± 0.45.
As for `CCCCCC` [hexane] + CCCC[N+]1(C)CCCC1.N#C[B-](C#N)(C#N)C#N, the activity coefficient stood at 16.4 ± 1.1 in data set [3] (318.15 K); 15.3 ± 1 in data set [3] (328.15 K); 14.3 ± 1 in data set [3] (338.15 K); 13.8 ± 0.9 in data set [3] (348.15 K); 12.9 ± 0.9 in data set [3] (358.15 K); 12.3 ± 0.8 in data set [3] (368.15 K).
On to `CO` [methanol] + CCCC[N+]1(C)CCCC1.N#C[B-](C#N)(C#N)C#N, for which the activity coefficient amounted to 0.991 ± 0.062 in data set [3] (318.15 K); 0.912 ± 0.058 in data set [3] (328.15 K); 0.861 ± 0.055 in data set [3] (338.15 K); 0.812 ± 0.053 in data set [3] (348.15 K); 0.753 ± 0.05 in data set [3] (358.15 K); 0.723 ± 0.048 in data set [3] (368.15 K).
In the case of `CC1CCCCC1` [methylcyclohexane] + CCCC[N+]1(C)CCCC1.N#C[B-](C#N)(C#N)C#N, the activity coefficient is 11.9 ± 0.8 in data set [3] (318.15 K); 11 ± 0.8 in data set [3] (328.15 K); 10.5 ± 0.7 in data set [3] (338.15 K); 10.1 ± 0.7 in data set [3] (348.15 K); 9.38 ± 0.64 in data set [3] (358.15 K); 8.94 ± 0.61 in data set [3] (368.15 K).
Regarding `CCCCCCCCC` [nonane] + CCCC[N+]1(C)CCCC1.N#C[B-](C#N)(C#N)C#N, the activity coefficient came out at 46.2 ± 3.2 in data set [3] (318.15 K); 42.5 ± 2.9 in data set [3] (328.15 K); 38.2 ± 2.6 in data set [3] (338.15 K); 36.3 ± 2.5 in data set [3] (348.15 K); 32.6 ± 2.2 in data set [3] (358.15 K); 30.3 ± 2.1 in data set [3] (368.15 K).
In the case of `C=CCCCCCC` [oct-1-ene] + CCCC[N+]1(C)CCCC1.N#C[B-](C#N)(C#N)C#N, the activity coefficient in data set [3] (318.15 K) was 15.4 ± 1.1; in data set [3] (328.15 K), 14.6 ± 1; in data set [3] (338.15 K), 14.1 ± 1; in data set [3] (348.15 K) it was 13.4 ± 0.9; in data set [3] (358.15 K), 12.6 ± 0.9; in data set [3] (368.15 K), 12.5 ± 0.9.
Turning to `CCCCCCCC` [octane] + CCCC[N+]1(C)CCCC1.N#C[B-](C#N)(C#N)C#N, the activity coefficient in data set [3] (318.15 K) worked out at 32.6 ± 2.2; in data set [3] (328.15 K), 30.2 ± 2.1; in data set [3] (338.15 K), 27.5 ± 1.9; in data set [3] (348.15 K), 26.2 ± 1.8; in data set [3] (358.15 K), 23.8 ± 1.6; in data set [3] (368.15 K) it was 22.5 ± 1.5.
`CCCC(C)=O` [pentan-2-one] + CCCC[N+]1(C)CCCC1.N#C[B-](C#N)(C#N)C#N: the activity coefficient in data set [3] (318.15 K) came out at 0.692 ± 0.047; in data set [3] (328.15 K), 0.701 ± 0.047; in data set [3] (338.15 K) it was 0.721 ± 0.048; in data set [3] (348.15 K), 0.735 ± 0.049; in data set [3] (358.15 K), 0.738 ± 0.049; in data set [3] (368.15 K), 0.755 ± 0.05.
Turning to `CCC(=O)CC` [pentan-3-one] + CCCC[N+]1(C)CCCC1.N#C[B-](C#N)(C#N)C#N, the activity coefficient in data set [3] (318.15 K) stood at 0.65 ± 0.044; in data set [3] (328.15 K) it was 0.664 ± 0.045; in data set [3] (338.15 K) it was 0.688 ± 0.046; in data set [3] (348.15 K), 0.71 ± 0.047; in data set [3] (358.15 K), 0.719 ± 0.048; in data set [3] (368.15 K) it was 0.732 ± 0.048.
In the case of `CCCCC` [pentane] + CCCC[N+]1(C)CCCC1.N#C[B-](C#N)(C#N)C#N, the activity coefficient in data set [3] (318.15 K) turned out to be 12.1 ± 0.8; in data set [3] (328.15 K), 11.2 ± 0.8; in data set [3] (338.15 K), 10.5 ± 0.7; in data set [3] (348.15 K), 10.2 ± 0.7; in data set [3] (358.15 K) it was 9.56 ± 0.65; in data set [3] (368.15 K), 9.09 ± 0.62.
`CCCO` [propan-1-ol] + CCCC[N+]1(C)CCCC1.N#C[B-](C#N)(C#N)C#N: the activity coefficient in data set [3] (318.15 K) came out at 1.5 ± 0.1; in data set [3] (328.15 K), 1.36 ± 0.09; in data set [3] (338.15 K) it was 1.27 ± 0.08; in data set [3] (348.15 K), 1.18 ± 0.08; in data set [3] (358.15 K) it was 1.1 ± 0.07; in data set [3] (368.15 K), 1.04 ± 0.07.
On to `C1CCOC1` [tetrahydrofuran] + CCCC[N+]1(C)CCCC1.N#C[B-](C#N)(C#N)C#N, for which the activity coefficient in data set [3] (318.15 K) worked out at 0.61 ± 0.043; in data set [3] (328.15 K), 0.611 ± 0.043; in data set [3] (338.15 K), 0.639 ± 0.044; in data set [3] (348.15 K) it was 0.652 ± 0.045; in data set [3] (358.15 K), 0.661 ± 0.045; in data set [3] (368.15 K), 0.679 ± 0.046.
With `c1ccsc1` [thiophene] + CCCC[N+]1(C)CCCC1.N#C[B-](C#N)(C#N)C#N, the activity coefficient in data set [3] (318.15 K) stood at 0.659 ± 0.045; in data set [3] (328.15 K) it was 0.663 ± 0.045; in data set [3] (338.15 K), 0.684 ± 0.046; in data set [3] (348.15 K), 0.702 ± 0.047; in data set [3] (358.15 K), 0.711 ± 0.047; in data set [3] (368.15 K), 0.734 ± 0.049.
As to `Cc1ccccc1` [toluene] + CCCC[N+]1(C)CCCC1.N#C[B-](C#N)(C#N)C#N, the activity coefficient in data set [3] (318.15 K) was found to be 1.09 ± 0.07; in data set [3] (328.15 K), 1.11 ± 0.07; in data set [3] (338.15 K), 1.14 ± 0.07; in data set [3] (348.15 K), 1.16 ± 0.07; in data set [3] (358.15 K) it was 1.18 ± 0.08; in data set [3] (368.15 K), 1.2 ± 0.08.
For the molecule `O` [water] + CCCC[N+]1(C)CCCC1.N#C[B-](C#N)(C#N)C#N, the activity coefficient came out at 2.15 ± 0.15 in data set [3] (318.15 K); 1.87 ± 0.13 in data set [3] (328.15 K); 1.73 ± 0.12 in data set [3] (338.15 K); 1.58 ± 0.1 in data set [3] (348.15 K); 1.39 ± 0.09 in data set [3] (358.15 K); 1.28 ± 0.08 in data set [3] (368.15 K).

As a reminder, the mass density is the mass of a sample divided by its volume.

Source of the values: the NIST ThermoML archive (doi:10.1016/j.jct.2011.06.007).
